# Assay results from publication PMC4129416, “YLT192, a Novel, Orally Active Bioavailable Inhibitor of VEGFR2 Signaling with Potent Antiangiogenic Activity and Antitumor Efficacy in Preclinical Models” (Scientific Reports, 2014).
# System: VEGFR2 signaling pathway in HUVEC
# Assay: Western blot of VEGF-induced VEGFR2 phosphorylation and downstream signalling in HUVEC
# Assay type: cell-based, human
# Settings: concentration-dependent
# Protocol: Figure 2 Effects of YLT192 on HUVECs proliferation, migration, invasion and tube formation. […] Cells were wounded by the pipette and then treated with various concentrations of compounds for 24 hours. Migrated cells were quantified by manual counting (50×). […] The bottom chambers of the transwells were filled with 600 μL EGM2 containing various growth factors while the top chambers were seeded with 4 × 10^4 HUVECs in EBM2 and treated with different concentrations of compounds for 24 hours. Cells invaded through the membrane were stained and quantified (100×). […] HUVECs were seeded on Matrigel layer and treated with different concentrations of compounds. HUVECs tube formation was assessed 6 hours later (50×). One representative experiment of three is shown. For (A), (B) and (C), data represent the mean ± SEM of three different experiments. Each experiment was performed in duplicate.*P < 0.05, **P < 0.01. (D) YLT192 inhibited VEGF-induced phosphorylation of VEGFR2 and its downstream signal regulator p44/42 MAPK, STAT3 and AKT in HUVECs. One representative Western blot of three is presented. Each has the expression of β-actin as internal control. The full size blots were shown in the Supplemental Figure S5 online. (E) Cellular thermal shift assay showing VEGFR2 target engagement by YLT192 in intact HUVECs. One representative Western blot of two is presented. […]
smiles,measurement,value
CNC(=O)c1cc(Oc2ccc(NC(=O)c3cccc(OC)c3)cc2)ccn1 [YLT192],"VEGF-stimulated phosphorylation of VEGFR2 and downstream p44/42 MAPK, AKT, and STAT3",clearly reduced
